Source: patent publication US20240059703A1 (AMGEN INC., priority 2021, published 2024)

How the values were obtained:
[1] = target: KRAS G12C (Homo sapiens (Human), UniProt P01116, C118A/G12C); test: 2 h coupled exchange assay; format: biochemical; settings: Avg 2 h Coupled exchange IC50, 2 h compound pre-incubation, SOS-mediated nucleotide exchange
Procedure: The term “2 h coupled exchange assay” or “20 h coupled exchange assay” as used herein refers to the assay described in the Section entitled “BIOLOGICAL EVALUATION.”

[2] = tested on: MIA PaCa-2 (human pancreatic carcinoma) cells; test: Cell Viability Assay (CellTiter-Glo), MIA PaCa-2; format: cell-based; settings: Homo sapiens, MIA PaCa-2, 72 h
Procedure: Serially-diluted compound or DMSO was added to the cells, and plates were incubated at 37° C., 5% CO2 for 72 h. Cell viability was measured using a CellTiter-Glo® Luminescent Cell Viability Assay kit (Promega) according to the manufacturer's protocol. The luminescence signal of treated samples was normalized to DMSO control, and data were analyzed using a 4-parameter logistic model to calculate IC50 values.

[3] = tested on: A549 (human lung carcinoma) cells; test: Cell Viability Assay (CellTiter-Glo), A549; format: cell-based; settings: Homo sapiens, A549, 72 h
Outline: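 RPMI 1640/10% FBS; seed 1.67E+04 cells/mL, o/n 37° C., 5% CO2; serial-dilution cmpd 72 h; CellTiter-Glo luminescence vs DMSO; 4-parameter logistic fit → IC50.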

Chain of KRAS G12C (P01116 other isoform, or with tags, fused parts or gaps G12C/C118A): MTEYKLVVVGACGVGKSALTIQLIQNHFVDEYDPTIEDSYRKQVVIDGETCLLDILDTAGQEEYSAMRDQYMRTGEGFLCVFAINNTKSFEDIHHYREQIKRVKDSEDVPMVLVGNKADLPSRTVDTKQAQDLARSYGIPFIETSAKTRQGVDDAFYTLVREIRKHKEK

C=CC(=O)N1CC2(CCN(c3nc4c(c(-c5c(C)ccc6[nH]ncc56)c3C#N)CC(C)(C)C4)C2C)C1 [Example 13-52, 6,6-dimethyl-4-(5-methyl-1H-indazol-4-yl)-2-((5R)-5-methyl-2-(2-propenoyl)-2,6-diazaspiro[3.4]octan-6-yl)-6,7-dihydro-5H-cyclopenta[b]pyridine-3-carbonitrile|6,6-dimethyl-4-(5-methyl-1H-indazol-4-yl)-2-((5S)-5-methyl-2-(2-propenoyl)-2,6-diazaspiro[3.4]octan-6-yl)-6,7-dihydro-5H-cyclopenta[b]pyridine-3-carbonitrile]
IC50 [1]: 43 nM | IC50 [2]: 231 nM | IC50 [3]: > 5000 nM

C=CC(=O)N1CC2(CCN(c3nc4c(c(-c5cc(O)cc6ccccc56)c3C#N)CC(C)(C)C4)C2)C1 [Example 13-65, 4-(3-hydroxy-1-naphthalenyl)-6,6-dimethyl-2-(2-(2-propenoyl)-2,6-diazaspiro[3.4]octan-6-yl)-6,7-dihydro-5H-cyclopenta[b]pyridine-3-carbonitirle]
IC50 [1]: 74 nM | IC50 [2]: 472 nM | IC50 [3]: > 5000 nM

C=CC(=O)N1CC2(CCN(c3nc4c(c(-c5c(C)ccc6[nH]ncc56)c3C#N)CC3CC43)C2)C1 (stereo not drawn) [Example 13-81]
IC50 [1]: 98 nM | IC50 [2]: 319 nM | IC50 [3]: > 5000 nM

C=CC(=O)N1CC2(CCN(c3nc4c(c(-c5c(C)ccc6[nH]ncc56)c3C#N)C3CC3C4)C2)C1 (stereo not drawn) [Example 13-82]
IC50 [1]: 66 nM | IC50 [2]: 462 nM | IC50 [3]: > 5000 nM

C=CC(=O)N1CC2(CCN(c3nc4c(c(-c5c(C)ccc6[nH]ncc56)c3C#N)CC(C3CC3)C4)C2)C1 [Example 13-83, (6R)-6-cyclopropyl-4-(5-methyl-1H-indazol-4-yl)-2-(2-(2-propenoyl)-2,6-diazaspiro[3.4]octan-6-yl)-6,7-dihydro-5H-cyclopenta[b]pyridine-3-carbonitrile|(6S)-6-cyclopropyl-4-(5-methyl-1H-indazol-4-yl)-2-(2-(2-propenoyl)-2,6-diazaspiro[3.4]octan-6-yl)-6,7-dihydro-5H-cyclopenta[b]pyridine-3-carbonitrile]
IC50 [1]: 86 nM | IC50 [2]: > 5000 nM | IC50 [3]: > 5000 nM

C=CC(=O)N1CC2(CCN(c3nc4c(c(-c5c(C)ccc6[nH]ncc56)c3C#N)C3C(C4)C3(C)C)C2)C1 (stereo not drawn) [Example 13-84]
IC50 [1]: 108 nM | IC50 [2]: 479 nM | IC50 [3]: > 5000 nM

C=CC(=O)N1CC2(CCN(c3nc4c(c(-c5c(C)c(C)cc6cnn(C)c56)c3C#N)CCC(C)(C)C4)C2)C1 [Example 13-89, 7,7-dimethyl-2-(2-(2-propenoyl)-2,6-diazaspiro[3.4]octan-6-yl)-4-(1,5,6-trimethyl-1H-indazol-7-yl)-5,6,7,8-tetrahydro-3-quinolinecarbonitrile]
IC50 [1]: 35 nM | IC50 [2]: 101 nM | IC50 [3]: > 5000 nM

C=CC(=O)N1CC2(CCN(c3nc4c(c(-c5c(C)c(C)cc6cnn(C)c56)c3C#N)COC(C)(C)C4)C2)C1 [Example 13-90, 7,7-dimethyl-2-(2-(2-propenoyl)-2,6-diazaspiro[3.4]octan-6-yl)-4-(1,5,6-trimethyl-1H-indazol-7-yl)-7,8-dihydro-5H-pyrano[4,3-b]pyridine-3-carbonitrile]
IC50 [1]: 27 nM | IC50 [2]: 24 nM | IC50 [3]: > 5000 nM

C=CC(=O)N1CC2(CCN(c3nc4c(c(-c5c(C)ccc6[nH]ncc56)c3C#N)C[C@H]3C[C@@H]4C3(C)C)C2)C1 [Example 13-93, (6R,8R)-2-(2-acryloyl-2,6-diazaspiro[3.4]octan-6-yl)-7,7-dimethyl-4-(5-methyl-1H-indazol-4-yl)-5,6,7,8-tetrahydro-6,8-methanoquinoline-3-carbonitrile]
IC50 [1]: 53 nM | IC50 [2]: 13 nM | IC50 [3]: > 5000 nM

C=CC(=O)N1CC2(CCN(c3nc4c(c(-c5c(C)ccc6[nH]ncc56)c3C#N)C[C@H]3C[C@@H]4C3(C)C)C2C)C1 (stereo partly drawn) [Example 13-94, (1R,9R)-10,10-dimethyl-6-(5-methyl-1H-indazol-4-yl)-4-((5R)-5-methyl-2-(2-propenoyl)-2,6-diazaspior[3.4]octan-6-yl)-3-azatricyclo[7.1.1.0^2,7]undeca-2,4,6-triene-5-carbonitrile|(1R,9R)-10,10-dimethyl-6-(5-methyl-1H-indazol-4-yl)-4-((5S)-5-methyl-2-(2-propenoyl)-2,6-diazaspiro[3.4]octan-6-yl)-3-azatricyclo[7.1.1.0^2,7]undeca-2,4,6-triene-5-carbonitrile]
IC50 [1]: 51 nM | IC50 [2]: 42 nM | IC50 [3]: > 5000 nM

C=CC(=O)N1CC2(CCN(c3nc4c(c(-c5c(C)ccc6[nH]ncc56)c3C#N)COC(C)(C)C4)C2)C1 [Example 13-95, 2-(2-acryloyl-2,6-diazaspiro[3.4]octan-6-yl)-7,7-dimethyl-4-(5-methyl-1H-indazol-4-yl)-7,8-dihydro-5H-pyrano[4,3-b]pyridine-3-carbonitrile]
IC50 [1]: 34 nM | IC50 [2]: 92 nM | IC50 [3]: > 5000 nM

C=CC(=O)N1CC2(CCN(c3nc4c(c(-c5c(C)ccc6[nH]ncc56)c3C#N)CCCC4(F)F)C2)C1 [Example 13-96, 2-(2-acryloyl-2,6-diazaspiro[3.4]octan-6-yl)-8,8-difluoro-4-(5-methyl-1H-indazol-4-yl)-5,6,7,8-tetrahydroquinoline-3-carbonitrile]
IC50 [1]: 325 nM | IC50 [2]: > 5000 nM | IC50 [3]: > 5000 nM

C=CC(=O)N1CC2(CCN(c3nc4c(c(-c5c(C)ccc6[nH]ncc56)c3C#N)CCC4(C)C)C2)C1 [Example 13-97, 2-(2-acryloyl-2,6-diazaspiro[3.4]octan-6-yl)-7,7-dimethyl-4-(5-methyl-1H-indazol-4-yl)-6,7-dihydro-5H-cyclopenta[b]pyridine-3-carbonitrile]
IC50 [1]: 46 nM | IC50 [2]: 423 nM | IC50 [3]: > 5000 nM

C=CC(=O)N1CC2(CCN(c3nc4c(c(-c5c(C)ccc6[nH]ncc56)c3C#N)COC3(CCC3)C4)C2)C1 [Example 13-98, 2′-(2-acryloyl-2,6-diazaspiro[3.4]octan-6-yl)-4′-(5-methyl-1H-indazol-4-yl)-5′,8′-dihydrospiro[cyclobutane-1,7′-pyrano[4,3-b]pyridine]-3′-carbonitrile]
IC50 [1]: 51 nM | IC50 [2]: 103 nM | IC50 [3]: > 5000 nM

C=CC(=O)N1CC2(CCN(c3nc4c(c(-c5c(C)ccc6[nH]ncc56)c3C#N)COC(C(F)(F)F)C4)C2)C1 (stereo not drawn) [Example 13-99]
IC50 [1]: 180 nM | IC50 [2]: 1430 nM | IC50 [3]: > 5000 nM

C=CC(=O)N1CC2(CCN(c3nc4c(c(-c5c(C)ccc6[nH]ncc56)c3C#N)COC4(C)C)C2)C1 [Example 13-100, 2-(2-acryloyl-2,6-diazaspiro[3.4]octan-6-yl)-7,7-dimethyl-4-(5-methyl-1H-indazol-4-yl)-5,7-dihydrofuro[3,4-b]pyridine-3-carbonitrile]
IC50 [1]: 124 nM | IC50 [2]: 947 nM | IC50 [3]: > 5000 nM

C=CC(=O)N1CC2(CCN(c3nc4c(c(-c5c(C)ccc6[nH]ncc56)c3C#N)CCC43CC3)C2)C1 [Example 13-101, 2-(2-acryloyl-2,6-diazaspiro[3.4]octan-6-yl)-4-(5-methyl-1H-indazol-4-yl)-5,6-dihydrospiro[cyclopenta[b]pyridine-7,1′-cyclopropane]-3-carbonitrile]
IC50 [1]: 102 nM | IC50 [2]: 1370 nM | IC50 [3]: > 5000 nM

C=CC(=O)N1CC2(CCN(c3nc4c(c(-c5c(C)ccc6cnn(C)c56)c3C#N)C[C@H]3C[C@@H]4C3(C)C)C2)C1 [Example 13-104, (1R,9R)-6-(1,6-dimethyl-1H-indazol-7-yl)-10,10-dimethyl-4-(2-(2-propenoyl)-2,6-diazaspiro[3.4]octan-6-yl)-3-azatricyclo[7.1.1.0^2,7]undeca-2,4,6-triene-5-carbonitrile]
IC50 [1]: 97 nM | IC50 [2]: 1340 nM | IC50 [3]: > 5000 nM

C=CC(=O)N1CC2(CCN(c3nc4c(c(-c5cc(O)cc6ccccc56)c3C#N)C[C@H]3C[C@@H]4C3(C)C)C2)C1 [Example 13-108, (1R,9R)-6-(3-hydroxy-1-naphthalenyl)-10,10-dimethyl-4-(2-(2-propenoyl)-2,6-diazaspiro[3.4]octan-6-yl)-3-azatricyclo[7.1.1.0^2,7]undeca-2,4,6-triene-5-carbonitrile]
IC50 [1]: 24 nM | IC50 [2]: 63 nM | IC50 [3]: 2910 nM

C=CC(=O)N1CC2(CCN(c3nc4c(c(-c5c(C)ccc6cnn(C)c56)c3C#N)C[C@H]3C[C@@H]4C3)C2)C1 [Example 13-110, (1S,9S)-6-(1,6-dimethyl-1H-indazol-7-yl)-4-(2-(2-propenoyl)-2,6-diazaspiro[3.4]octan-6-yl)-3-azatricyclo[7.1.1.0^2,7]undeca-2,4,6-triene-5-carbonitrile]
IC50 [1]: 73 nM | IC50 [2]: 524 nM | IC50 [3]: > 5000 nM

C=CC(=O)N1CC2(CCN(c3nc4c(c(-c5cc(O)ccc5C)c3C#N)COC(C)(C)C4)C2)C1 [Example 13-112, 4-(5-hydroxy-2-methylphenyl)-7,7-dimethyl-2-(2-(2-propenoyl)-2,6-diazaspiro[3.4]octan-6-yl)-7,8-dihydro-5H-pyrano[4,3-b]pyridine-3-carbonitrile]
IC50 [1]: 117 nM | IC50 [2]: > 5000 nM | IC50 [3]: > 5000 nM

C=CC(=O)N1CC2(CCN(c3nc4c(c(-c5cc(O)ccc5C)c3C#N)C[C@H]3C[C@@H]4C3)C2)C1 [Example 13-113, (1S,9S)-6-(5-hydroxy-2-methylphenyl)-4-(2-(2-propenoyl)-2,6-diazaspiro[3.4]octan-6-yl)-3-azatricyclo[7.1.1.0^2,7]undeca-2,4,6-triene-5-carbonitrile]
IC50 [1]: 71 nM | IC50 [2]: > 5000 nM | IC50 [3]: > 5000 nM
